Data: patent US6902724B1, “Enhanced efficacy basic aluminum halides, antiperspirant active compositions and methods for making” (Reheis, Inc., priority 2004, dated 2005)

Key:
[1] = In vitro model: pore blocking of Millipore filter (IVMI); conditions: 0.185 molar aluminum solution; pH 10 buffer; 0.25% NaCl; 100 mm H2O; inverse relation to % sweat reduction
From the text: The apparatus and test protocol are based on method described by Reller and Leudders (Reller, H. H. and Leudders, W. L., Advances in Modern Toxicology, 4: 1-59 (1977)) and EP 0586235 B1 disclosures of which are incorporated herein by reference. Reller and Leudders described a millipore system which they used to measure the obstruction caused by the neutralization of various metal salts. They then compared their in vitro findings with those obtained for antiperspirant efficacy of the salts which had been tested in humans and found a reasonable correlation. A modified version of the apparatus and protocol described in […] were developed and used to determine the relative in vitro efficacy of antiperspirant actives. The system is shown schematically in FIG. 2 of the accompanying drawings. The system consists of four major components, namely the pressure control unit 1, the sweat reservoir II, the cell III and the measuring system IV.
The pressure control unit I consisted of a standard nitrogen gas cylinder 1 equipped with a pressure regulator 2 and connected to an on/off isolation valve 3 and pressure relief safety valve 4. The on/off valve 3 isolates the nitrogen cylinder 1 from the rest of the system. The majority of connections were made using ¼″ stainless steel tubing and swage lock fittings. […]

[2] = in vivo; cited from earlier work

[Cl][Al]([Cl])[Cl] [aluminum chloride solution, aluminum chloride]
IVMI (In Vitro Model Index) [1]: lowest
antiperspirancy among the various aluminum salts [2]: highest antiperspirancy
